A word on the EC50: it is the concentration that produces a half-maximal response.

Calls of active or inactive are those of the source.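 The calls were made as follows: active = half-maximal concentration for the rise in caspase light signal at or below ten times the top tested dose; inconclusive = flat fit between 30% and 70% activity, or unreliable curve fit; inactive = the rest.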

EC50 data for 87 compounds are collected here from PubChem BioAssay AID2765 (Broad Institute, 2010).

The experiment concerns MEF A1-2A-BIM cells, caspase 3/7 luminescence, 3 h. The experiment can be described thus: caspase activation in A1-2A-BIM MEF cells, dose response, A1 inhibitor project, cell-based, luminescence, retest (AID 2765).

For the compound `O=C(O)Cc1ccc(NC(=O)C(c2ccccc2)c2ccccc2)cc1`, the EC50 was > 35 µM (inactive).
In the case of `Cc1nc(-c2ccc(F)cc2)c(CC(=O)N(C)CC(=O)Nc2ccccc2Cl)s1`, the EC50 is > 35 µM (inactive).
Regarding `COC(=O)c1ccc(C(=O)OC)c(NC(=O)CSc2ccccn2)c1`, the EC50 is > 35 µM (inactive).
With `COc1ccc(CCNC(=O)CCOc2ccc(C)cc2)cc1OC`, the EC50 was > 35 µM (inactive).
Turning to `C=CC[N+]1(CC=C)CCOCC1`, the EC50 is > 35 µM (inactive).
As to `O=C(Cc1cn2ccsc2n1)Nc1cccc2cnccc12`, the EC50 was > 35 µM (inactive).
For the compound `O=C(O)c1cc(-c2ccc(Cl)cc2)n(-c2cccc(Cl)c2)n1`, the EC50 was > 35 µM (inactive).
Regarding `Cc1ccc(-c2noc(CSc3nnc(CCc4ccccc4)n3-c3ccccc3)n2)cc1`, the EC50 is > 35 µM (inactive).
On to `COc1ccccc1N1CCN(S(=O)(=O)CCNC(=O)c2cc(OC)c(OC)c(OC)c2)CC1`, for which the EC50 is > 35 µM (inactive).
Under `CCc1cccc(NC(=O)C2CCN(S(=O)(=O)c3ccc4c(c3)NC(=O)CO4)CC2)c1` stands > 35 µM (inactive); under `COc1ccccc1CCNC(C)CCc1ccc(O)cc1` (configuration not stated), > 35 µM (inactive); under `COCCNC(=O)C(c1ccco1)N(C(=O)Cn1nnc2ccccc21)c1ccc(C)cc1C` (configuration not stated), > 35 µM (inactive).
Under `CC(C)CN(C(=O)C1CSC2(C)CCC(=O)N12)c1c(N)n(Cc2ccccc2)c(=O)[nH]c1=O` (configuration not stated) stands > 35 µM (inactive); under `COc1cc2c(cc1OC)C(C)N(C(=O)c1cc3c(s1)-c1ccccc1OC3)CC2` (configuration not stated), > 35 µM (inactive); under `CC1CC(C)CN(C(=O)CCCn2c(=S)[nH]c3ccccc3c2=O)C1` (configuration not stated), > 35 µM (inactive).
On to `CC(=O)OCCn1c2nc(=O)[nH]c(=O)c-2nc2cc(C)c(C)cc21`, for which the EC50 is > 35 µM (inactive).
In the case of `Cc1cc(=O)n2nc(N3CCCC(C(=O)NCCc4ccc(Cl)cc4)C3)sc2n1` (configuration not stated), the EC50 was > 35 µM (inactive).
Under `CCN(C(=O)CSc1nc2ccccc2n1CC)C1CCS(=O)(=O)C1` (configuration not stated) stands > 35 µM (inactive); under `Fc1ccc(NC(=S)NCc2ccccc2Cl)cc1`, > 35 µM (inactive).
The same measure for `COc1ccc(NC(=O)CN2CCC(NC(=O)c3ccc(OC)cc3)CC2)cc1`: > 35 µM (inactive); for `N#CC(C#N)=C1C=CC=CN1/C(=C\c1ccccc1Cl)C(=O)c1ccccc1`: 7.34 µM.
Under `O=C(/C=C/c1ccc(Br)cc1)c1ccc(NC2=NCCCS2)cc1` stands > 35 µM (inactive); under `CN(CC(O)COC(c1ccccc1)c1ccccc1)C1CCCCC1` (configuration not stated), > 35 µM (inactive).
For `Cn1nc(-c2ccc(OCC(=O)NCC3CCCO3)cc2)c2ccccc2c1=O` (configuration not stated), the EC50 was > 35 µM (inactive).
For the compound `CCOc1cc(/C=C2/C(=N)N3C=CSC3=NC2=O)ccc1OCCCOc1ccccc1C`, the 50% effective concentration (EC50) is 18 µM.
Consider `COc1cc(SC#N)ccc1N=Cc1c(C)[nH]n(-c2ccc(C)cc2)c1=O`, for which the EC50 was > 35 µM (inactive).
With `Nc1nonc1-c1nc2ccccc2n1CC(=O)NC1CCCC1`, the EC50 is > 35 µM (inactive).
Consider `O=C(NC1CCCCC1)c1cccc2c1C(=O)c1ccc(-c3ccc(OC(F)(F)F)cc3)cc1S2(=O)=O`, for which the concentration giving a half-maximal response (EC50) was 27.5 µM.
On to `CC1(C(=O)NCC2CC2)C=CC2(CCCCC2)N1C(=O)c1ccccc1` (configuration not stated), for which the EC50 is > 35 µM (inactive).
On to `Cc1coc(NC(=O)CSc2nc(-c3ccc(Cl)cc3)cc(C(F)(F)F)c2C#N)n1`, for which the EC50 is > 35 µM (inactive).
The same measure for `CCS(=O)(=O)c1nc2ccccc2n1Cc1ccccc1Cl`: > 35 µM (inactive); for `COc1cc(Cl)c(C)cc1NC(=O)CSc1cc(Cl)ccc1Cl`: > 35 µM (inactive).
The same measure for `Cc1nc2sc(C(=O)O)c(N)c2c2c1COC(C)(C)C2`: > 35 µM (inactive).
Take `CC12CCCCC1NS(=O)(=O)OC2` (configuration not stated): the EC50 is > 35 µM (inactive).
As to `CCCCCC(=O)N1CCCC1`, the EC50 is > 35 µM (inactive).
For `Cc1cc(Nc2ccc(Cl)cc2)n2ncnc2n1`, the EC50 is > 35 µM (inactive).
Under `CC1Cc2cc(/C(O)=C3/C(=O)C(=O)N(Cc4cccnc4)C3c3cccc(O)c3)ccc2O1` (configuration not stated) stands > 35 µM (inactive); under `Cc1ccc2nc(N(CCCN(C)C)C(=O)c3ccc(S(=O)(=O)N4CCc5ccccc5C4)cc3)sc2c1`, > 35 µM (inactive).
`CC(=O)c1ccc(S(=O)(=O)N2CCCCC2C(=O)O)cc1` (configuration not stated): the EC50 is > 35 µM (inactive).
In the case of `CCOc1cc2c(cc1OCC)C(c1ccccc1)N(c1ccccc1)C(=O)C2` (configuration not stated), the EC50 was > 35 µM (inactive).
`COc1ccccc1C/C(N)=N/OC(=O)c1cccc([N+](=O)[O-])c1`: the EC50 was > 35 µM (inactive).
The same measure for `Cc1ccc(N(Cc2cc(=O)[nH]c3ccccc23)C(=O)CCl)cc1`: > 35 µM (inactive); for `O=S1(=O)C=C(Sc2nc3ccccc3s2)c2ccccc21`: > 35 µM (inactive).
For the compound `O=C(Nc1ccccc1C(=O)N1CCCCCC1)c1ccc(Cl)cc1`, the EC50 is > 35 µM (inactive).
Under `COc1cc2c3c([nH]c2cc1F)C(=O)NCC3` stands > 35 µM (inactive).
The same measure for `Cc1ccc(C)c(N(C(=O)CCC(=O)Nc2cc(C)on2)C(C(=O)NC2CCCC2)c2ccco2)c1` (configuration not stated): > 35 µM (inactive).
The same measure for `O=C(Nc1cccc([N+](=O)[O-])c1)Nc1ccc2c(c1)CCC2`: > 35 µM (inactive); for `CCCCNC(=O)c1ccc2nc(-c3ccco3)c(-c3ccco3)nc2c1`: > 35 µM (inactive).
Consider `Cc1cc(NC(=O)c2ccc3c(c2)C(=O)N(Cc2ccccc2)C3=O)no1`, for which the EC50 was > 35 µM (inactive).
As to `C=CCn1c(SCC(=O)NC2CC2)nnc1-c1ccccn1`, the EC50 was > 35 µM (inactive).
The same measure for `CCOC(=O)C(Cc1ccc(N)cc1)N1C(=O)c2ccccc2C1=O` (configuration not stated): > 35 µM (inactive); for `COc1ccc(C(=O)NCc2cccnc2)cc1Br`: > 35 µM (inactive); for `Nc1c(C(=O)Nc2ccc(S(=O)(=O)N3CCCC3)cc2)sc2nc3ccc(OC(F)(F)F)cc3cc12`: 8.62 µM.
Consider `CCOC(=O)C(=Cc1ccc(OCc2ccc([N+](=O)[O-])cc2)c(OC)c1)C(=O)OCC`, for which the EC50 was > 35 µM (inactive).
The same measure for `CS(=O)(=O)c1sc(C#N)c2c1C(=O)CC(c1ccccc1)C2` (configuration not stated): > 35 µM (inactive); for `COc1ccc(S(=O)(=O)N2CCC(C(=O)N[C@@H](C)C(=O)NCc3ccncc3)CC2)cc1`: > 35 µM (inactive).
On to `Cc1ccc(C(=O)/C=C/C(=O)c2ccc(C)cc2)cc1`, for which the EC50 is 19.4 µM.
For the compound `O=P(C(c1c[nH]c2ccccc12)N1CCOCC1)(N1CCOCC1)N1CCOCC1` (configuration not stated), the EC50 is > 35 µM (inactive).
Under `COc1ccc(NC(=O)C(=O)N/N=C\c2ccc(CNC(=O)C(=O)Nc3ccc(C)c(C)c3)o2)c(OC)c1` stands 14.3 µM; under `CC1CCc2c(sc3nc(C(C)(C)C)nc(N4CCN(C(=O)CCl)CC4)c23)C1` (configuration not stated), 15.4 µM.
As for `CCN(CC)C(=O)CCCc1c[nH]c2ccccc12`, the EC50 was > 35 µM (inactive).
As to `Cc1sc(NC(=O)CSC2=NCCS2)nc1-c1ccccc1`, the EC50 was > 35 µM (inactive).
In the case of `Cc1ccc2c(c1)c(C1=c3ccccc3=NC1=O)c(O)n2C`, the EC50 was > 35 µM (inactive).
The same measure for `CN1C2CCC1/C(=C/c1ccccn1)C(=O)/C2=C\c1ccccn1`: > 35 µM (inactive); for `O=C(c1ccccc1Br)N(Cc1ccccc1)c1ccccc1`: > 35 µM (inactive); for `CC(C)(C)C1CCc2onc(C(=O)Nc3cccc(O)c3)c2C1` (configuration not stated): > 35 µM (inactive).
`COc1cccc(-c2cc(=O)c3cc(NC(=O)c4ccc(N(C)C)cc4)ccc3[nH]2)c1`: the EC50 is > 35 µM (inactive).
As to `O=C(O)/C=C/C(=O)Nc1ccc(OC(F)F)cc1`, the EC50 is > 35 µM (inactive).
`Cc1ncc([N+](=O)[O-])n1Cc1cccc2ccccc12`: the EC50 is > 35 µM (inactive).
With `O=C(c1ccco1)N1CCCN(Cc2nc(-c3ccc4c(c3)OCO4)no2)CC1`, the EC50 was > 35 µM (inactive).
For `O=Cc1cccc(OC(=O)c2ccc(Cl)cc2Cl)c1`, the EC50 was > 35 µM (inactive).
The same measure for `CN(CC(=O)Nc1cccc2ccccc12)C(=O)c1ccc(NC(=O)CC#N)cc1`: > 35 µM (inactive); for `O=C(CSc1ccc(F)cc1)Nc1ccc(C2SCCS2)cc1`: > 35 µM (inactive).
Under `Cc1ccc(S(=O)(=O)CC#CCOC(=O)c2ccc([N+](=O)[O-])cc2)cc1` stands > 35 µM (inactive); under `c1ccc2c(CNc3ccc(CNc4ncn[nH]4)cc3)cccc2c1`, > 35 µM (inactive); under `Cc1ccc2[nH]c3c(c2c1)CCCC3NC(=O)CCl` (configuration not stated), > 35 µM (inactive).
The same measure for `COc1ccc(C=C2C=C(C(C)(C)C)C(=O)C(C(C)(C)C)=C2)cc1OC`: 5.77 µM; for `Cc1c(Nc2nc3ccccc3nc2NS(=O)(=O)c2cccc(Cl)c2)c(=O)n(-c2ccccc2)n1C`: > 35 µM (inactive); for `CC(C)N=c1scc(-c2ccco2)n1/N=C/c1ccc(O)c(O)c1`: > 35 µM (inactive).
Take `N#C/C(=C\c1ccc(N2CCOCC2)o1)c1ccccc1`: the EC50 is > 35 µM (inactive).
Under `CCN1CCN(CC(=O)Nc2cc(F)ccc2C)CC1` stands > 35 µM (inactive); under `Nc1cccc(Oc2cnccn2)c1`, > 35 µM (inactive).
As for `COc1ccc(OC)c(CNc2ccc([N+](=O)[O-])cc2C)c1`, the EC50 is > 35 µM (inactive).
On to `COc1ccc(NC(=O)c2oc3ccccc3c2NC(=O)C2CC2)cc1`, for which the EC50 was > 35 µM (inactive).
The same measure for `Cc1onc(-c2c(Cl)cccc2Cl)c1C(=O)N=S(C)(=O)c1ccccc1` (configuration not stated): > 35 µM (inactive); for `CC(=O)OC[C@]12CC[C@H]3[C@@](C)(CC[C@H]4C(C)(C)CCC[C@]34C)[C@@H]1C[C@H](C1=CC(=O)O[C@H]1OC(C)=O)O2`: 3.27 µM; for `COc1ccc(/C=C2\SC(=O)N(CCC(=O)N(C)C3CCS(=O)(=O)C3)C2=O)cc1` (configuration not stated): > 35 µM (inactive).
